{"source": "patent US20160031909A1", "about": "“PORPHYRAZINE OPTICAL AND DUAL OPTICAL/ MR CONTRAST AND THERAPEUTIC AGENTS” (HOFFMAN/BARRETT, LLC, priority 2013, published 2016)", "assay": "Ex vivo biodistribution by ICP-MS", "format": "in vivo, athymic nude mice", "method": "Cu-Pz-Gd(III) was examined as a contrast agent in vivo in an orthotopic breast tumor model in athymic nude mice. MDA-MB-231 breast tumor cells expressing mCherry fluorescent protein were implanted in the mammary fat pad of mice and tumors were allowed to grow to about 5 mm in diameter at which time mice were treated with 450 nmol (50 mg/kg) Cu-Pz-Gd(III) together with saline treated control mice (FIG. 3A).\nImages were acquired at baseline, and 4, 24, and 48 hours after injection of 150 μL of imaging agent via the tail vein. One control animal was injected with saline; the remaining 9 animals were injected with 450 nmol Cu-Pz-Gd(III). Three animals were sacrificed after 4 hour, 24 hour, and 48 hour timepoints, respectively; the organs were collected for ICP-MS (described below) to measure biodistribution.\nMice were sacrificed by CO2 inhalation followed by cervical dislocation. Blood, urine (where possible), tumor, liver, kidney, spleen, heart, lungs, and samples of skin and skeletal muscle were collected for elemental analysis by ICP-MS as described below. In one additional mouse that was not treated with an imaging agent, the tumor was collected and fixed in 10% formalin for histological analysis. […]", "note": "“Also recorded” adds a separate entry of the source."}
{"substance": "Cu[Pz(C19H28N8O7Gd)2]. Pz=18,21-bis(2-(1H-1,2,3-triazole-4-yl) ethoxy)-tris-[1,4-dioxino[g,l,q](2R,3R)-2,3-dimethoxy-2,3-dimethyll 25H,27H-benzo[b]porphyrazine; C19H28N8O7Gd=N-methyl-2-aminoacetamide-4,7,10-tris(carboxymethyl)-1,4,7,10-tetraazacyclododecylgadolinium(III)) [Cu-Pz-Gd(III)]", "values": [{"measurement": "route of clearance", "setting": "biodistribution data by ICP-MS", "value": "rapidly cleared, primarily through the kidneys; also recorded: primarily through the kidneys and liver; also recorded: cleared through the kidneys and liver"}, {"measurement": "tumor accumulation", "setting": "ex vivo biodistribution study", "value": "accumulates in tumors"}]}
